Results on two compounds are retold here after EP1992347A1 (CELLZOME AG, priority 2007, dated 2008).

Some results are limits rather than exact numbers.

In experiment [1] the target is T1, receptor tyrosine kinase DDR1 (Homo sapiens, UniProt Q08345).
T1 construct: endogenous in cells; host or cells: K562 cells / K562 cell lysate
In words: kinobeads competition binding assay in K562 cell lysate (iTRAQ mass spectrometry, Western blot). The settings on record: at 1 µM. (Immunoblotting shows a protein as a band on a membrane.)
Protocol: From this dataset, dose-response binding profiles were computed.
All experiments were performed in duplicate.

For experiment [2], the target named is FAK (Homo sapiens, UniProt Q05397). The note with it: phage display studies, Fabian et al., 2005; cited from earlier work.
Chain of FAK (Q05397 whole entry, species assumed): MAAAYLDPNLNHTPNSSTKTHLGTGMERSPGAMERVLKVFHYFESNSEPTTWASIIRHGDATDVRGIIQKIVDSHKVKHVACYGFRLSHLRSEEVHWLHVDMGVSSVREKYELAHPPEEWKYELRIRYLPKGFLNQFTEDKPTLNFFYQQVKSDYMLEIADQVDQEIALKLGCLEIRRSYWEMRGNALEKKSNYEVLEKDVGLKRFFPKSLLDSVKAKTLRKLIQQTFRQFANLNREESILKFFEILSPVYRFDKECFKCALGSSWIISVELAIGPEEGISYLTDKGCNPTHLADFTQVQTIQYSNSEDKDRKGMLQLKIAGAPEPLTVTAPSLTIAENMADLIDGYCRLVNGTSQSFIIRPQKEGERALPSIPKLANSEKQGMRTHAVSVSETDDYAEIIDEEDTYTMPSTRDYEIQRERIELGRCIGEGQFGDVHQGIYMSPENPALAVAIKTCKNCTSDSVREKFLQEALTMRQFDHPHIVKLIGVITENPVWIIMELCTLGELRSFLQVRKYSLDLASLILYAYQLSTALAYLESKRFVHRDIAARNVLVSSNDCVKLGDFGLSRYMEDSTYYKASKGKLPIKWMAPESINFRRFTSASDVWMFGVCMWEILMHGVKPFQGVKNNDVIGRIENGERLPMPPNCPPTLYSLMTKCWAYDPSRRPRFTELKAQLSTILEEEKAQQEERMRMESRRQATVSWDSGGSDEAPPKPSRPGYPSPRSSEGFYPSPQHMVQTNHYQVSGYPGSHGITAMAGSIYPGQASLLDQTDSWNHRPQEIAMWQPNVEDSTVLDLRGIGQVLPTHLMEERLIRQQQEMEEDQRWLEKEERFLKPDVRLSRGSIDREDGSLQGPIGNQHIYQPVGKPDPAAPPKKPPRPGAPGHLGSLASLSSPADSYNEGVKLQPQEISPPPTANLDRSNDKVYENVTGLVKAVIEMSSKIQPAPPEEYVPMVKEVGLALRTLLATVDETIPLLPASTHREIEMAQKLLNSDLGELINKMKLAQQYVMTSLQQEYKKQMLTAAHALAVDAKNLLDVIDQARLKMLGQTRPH

T1 sequence (Q08345 19-913): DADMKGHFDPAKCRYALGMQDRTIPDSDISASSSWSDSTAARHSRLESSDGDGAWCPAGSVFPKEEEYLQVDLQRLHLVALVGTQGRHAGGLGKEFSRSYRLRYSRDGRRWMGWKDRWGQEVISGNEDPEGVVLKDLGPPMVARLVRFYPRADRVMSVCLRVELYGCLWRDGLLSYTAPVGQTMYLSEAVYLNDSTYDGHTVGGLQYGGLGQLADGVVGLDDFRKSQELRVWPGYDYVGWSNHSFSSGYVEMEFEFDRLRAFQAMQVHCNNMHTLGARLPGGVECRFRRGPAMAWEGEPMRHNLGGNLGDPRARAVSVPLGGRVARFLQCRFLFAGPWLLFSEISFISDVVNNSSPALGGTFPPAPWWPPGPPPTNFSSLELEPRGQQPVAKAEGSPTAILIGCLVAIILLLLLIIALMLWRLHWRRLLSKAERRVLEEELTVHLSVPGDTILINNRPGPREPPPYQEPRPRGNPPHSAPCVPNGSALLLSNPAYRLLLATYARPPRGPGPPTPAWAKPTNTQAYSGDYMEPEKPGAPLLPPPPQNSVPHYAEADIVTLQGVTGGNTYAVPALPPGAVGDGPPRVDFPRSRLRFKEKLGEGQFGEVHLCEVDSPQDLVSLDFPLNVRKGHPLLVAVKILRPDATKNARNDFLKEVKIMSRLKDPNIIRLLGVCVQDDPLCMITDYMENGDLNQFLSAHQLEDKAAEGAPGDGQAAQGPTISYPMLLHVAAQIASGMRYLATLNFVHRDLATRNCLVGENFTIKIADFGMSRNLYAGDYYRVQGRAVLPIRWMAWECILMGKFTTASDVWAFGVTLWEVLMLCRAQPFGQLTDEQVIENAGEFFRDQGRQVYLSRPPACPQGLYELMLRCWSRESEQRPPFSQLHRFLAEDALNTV

`COc1cc(Nc2c(C#N)cnc3cc(OCCCN4CCN(C)CC4)c(OC)cc23)c(Cl)cc1Cl` [bosutinib] came in with a competition in experiment [1] of over 50%.
As for `Cc1ccc(NC(=O)c2ccc(CN3CCN(C)CC3)cc2)cc1Nc1nccc(-c2cccnc2)n1` [imatinib, 4-(4-methylpiperazin-1-ylmethyl)-N-[4-methyl-3-(4-pyridin-3-yl)pyrimidin-2-ylamino)phenylbenzamide], the “binding to FAK” value in experiment [2] is on record as “no binding”.
